The target in data set [1] is T1, human caspase 6 lacking the pro-domain (Homo sapiens, UniProt P55212).
T1 sequence (P55212 with tags, fused parts or gaps): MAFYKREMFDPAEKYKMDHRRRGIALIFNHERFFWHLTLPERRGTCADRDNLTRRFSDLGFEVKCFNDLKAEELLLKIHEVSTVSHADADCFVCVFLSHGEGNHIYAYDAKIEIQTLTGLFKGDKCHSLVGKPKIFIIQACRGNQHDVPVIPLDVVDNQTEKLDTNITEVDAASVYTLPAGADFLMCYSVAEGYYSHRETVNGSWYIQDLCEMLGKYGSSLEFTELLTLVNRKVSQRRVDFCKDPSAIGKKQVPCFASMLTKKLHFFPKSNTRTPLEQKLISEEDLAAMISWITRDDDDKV
The data set is described as follows: Lamin A cleavage in HEK 293 cells overexpressing caspase-6 (Mesoscale ELISA). The note with it: 24 hr incubation; cleaved lamin A quantified; read-out: HEK intracellular IC50. The format is cell-based. More on the design: The transfected DNA encodes amino acids 24-293 of the human caspase 6 enzyme with a C-terminal DDK tag; DDK-tag (C); expressed in transfected cells; host or cells: HEK 293. The method, then:
HEK 293 cells were grown in DMEM supplemented with 10% fetal bovine serum, 1%/penicillin/streptomycin and 0.5% glutamine. Transfections were performed using the Fugene reagent (Roche) according to manufacturer's instructions. The transfected DNA encodes amino acids 24-293 of the human caspase 6 enzyme with a C-terminal DDK tag under the control of a CMV promoter (vector pCMVSport6) (SEQ ID NO: 2). The transfected HEK 293 were used to measure the intracellular activity of caspase-6 as evidenced by cleavage of the lamin substrate (described below).
The quantitative assessment of intracellular lamin cleavage in caspase-6 transfected HEK 293 cells was done as described previously (Ehrnhoefer et al. PLoS One, 2011. 6(11):e27680) Briefly, HEK 293 cell lysates were adjusted to 1 μg protein/μl in lysis buffer, diluted to 0.2 μg/μl in PBS and 5 μl were added to a Multi-Array high-bind 96 well plate (Mesoscale discovery). After incubation at room temperature for 1 h, the wells were blocked by adding 150 μl 5% BSA in PBS, followed by further incubation at room temperature for 1 h. Wells were then washed 3× with 150 μl PBS+0.05% Tween, and 25 μl antibody mix was added (Cell signaling #2036 at 1:100 dilution, Mesoscale discovery goat-anti-rabbit sulfo-tag at 1:500 dilution in PBS with 1% BSA). After lh incubation at room temperature, the wells were washed 3× with 150 μl PBS+0.05% Tween, and 150 μl/well 2× reading reagent (Mesoscale discovery) was added. The plate was read on a Sector imager 6000 (Mesoscale discovery).
The PG3 analog compounds were also tested for their ability to inhibit caspase-6 within cultured cells. HEK 293 cells were transfected with human caspase 6 lacking the pro-domain and were incubated with increasing concentrations of the PG3 analogs. After a 24 hr incubation, the excess compound was washed away, the cells were lysed and the amount of cleaved lamin A protein was quantified by the Mesoscale ELISA method.
A general note: In an ELISA, binding on a coated surface is turned into a signal by an enzyme label.

The next data set has as its target T2, recombinant caspase-6 (Homo sapiens, UniProt P55212).
T2 construct: purchased BioMol
T2 sequence (P55212 24-293): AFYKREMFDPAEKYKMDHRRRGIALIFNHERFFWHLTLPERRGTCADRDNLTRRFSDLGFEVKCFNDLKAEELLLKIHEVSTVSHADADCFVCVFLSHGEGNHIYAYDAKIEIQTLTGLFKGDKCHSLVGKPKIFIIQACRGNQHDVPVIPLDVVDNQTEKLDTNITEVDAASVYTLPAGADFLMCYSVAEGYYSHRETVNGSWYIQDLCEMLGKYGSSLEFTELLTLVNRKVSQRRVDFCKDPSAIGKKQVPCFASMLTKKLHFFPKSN
The data set is described as follows: Simultaneous caspase-6 cleavage and 586 fragment detection by FRET. The following applies: cell-free; Htt substrate from COS-7 cell lysates. The format is biochemical. The method, then: Different concentrations of the PG3 compounds were incubated with the Htt protein and the caspase-6 enzyme. The Htt substrate from COS-7 cell lysates is cleaved by caspase 6 and fragments are detected by FRET between the N-terminal BKP1 antibody and the neo-epitope antibody against amino acid 586.
COS-7 cells were grown in DMEM supplemented with 10% fetal bovine serum, 1%/penicillin/streptomycin and 0.5% glutamine. Transfections were performed using the Fugene reagent (Roche) according to manufacturer's instructions. The transfected DNA encodes amino acids 1-1212 of the human Htt protein with 15 glutamines and a C-terminal HA-tag, under control of a CMV promoter (Warby, 2008, supra; Wellington et al., 2000. J Biol Chem 275:19831-19838). The construct that was transfected is 4c Htt, which contains D→A mutations at amino acids 513, 530, 552 and […] (SEQ ID NO: 1). 24 h after transfection, cells were harvested by trypsinization, pellets washed in PBS and lysed by suspension in lysis buffer (50 mM Tris pH 8, 150 mM NaCl, 1% Igepal, supplemented with 1× complete protease inhibitor (Roche) and 4 mM Pefabloc). Lysates were incubated on ice for 10 min, vortexed and sonicated for 4 sec before centrifugation at 21,000×g for 10 min at 4° C. Supernatants were saved, protein concentration determined with the Biorad DC assay and stored at −80° C. until use.
Dilution series of cell lysates and caspase-6 (2.2× final concentration) were prepared in FRET cleavage buffer (10 mM HEPES pH 7.4, 100 mM NaCl, 0.05% gelatin, 0.1% CHAPS, 2 mM DTT) since this buffer was previously found to best stabilize caspase-6 in dilute form at room temperature. For negative controls, 22 μM zVAD-fmk was added to the caspase-6 dilutions.
Tb-labelled BKP1 antibody and D2-labelled 586 antibody (Cisbio) were diluted to 1 ng/μl (Tb) and 10 ng/μl (D2) in FRET cleavage buffer and pre-mixed at a 1:1 ratio.
In each well of a white 384 well plate (Nunc), 10 μl cell lysate were mixed with 10 μl caspase and 2 μl antibody mix, the plate was centrifuged briefly and incubated in the Victor 3 multilabel plate reader (Perkin Elmer) at 37° C. FRET was measured every 30 min for up to 2 h with the following settings: Excitation: 340 nm, Emission 1: 615 nm, Emission 2: 665 nm, 50 μs delay, 200 μs window time, 2000 μs cycle time. To obtain the final FRET signal, the ratio between Emission 2/Emission 1 (D2/Tb signal) was calculated. After 2 h at 37° C., the assay plate was sealed and after further incubation at 4° C. for 20 h, the FRET signal was read again.

For data set [2], the target named is T1, human caspase 6 lacking the pro-domain. Nature of the data set: Intracellular Htt cleavage by Western blot in co-transfected COS-7 cells. More on the design: DDK-tag (C); expressed in transfected cells; host or cells: COS-7. The format is cell-based. The note with it: 3 uM inhibitor. The method, then: COS-7 cells were co-transfected with the 4c htt fragment and the human caspase-6 lacking the pro-domain which leads to fast autoactivation of the caspase-6 enzyme and the generation of the 586 aa Htt cleavage fragment. The co-transfected cells were exposed to either 10 uM of the PG3d compound, 3 uM of the Q-VD-Oph pan-caspase inhibitor or were left untreated. Non-transfected cells were included as a negative control and the purified 586 aa Htt fragment was included as a positive control. Cell lysates were subjected to Western blotting and the 586AA fragment generated intracellularly was detected with Htt antibody 2166 (Millipore). Caspase-6 expression and activation was assessed by Western blotting using antibody HD91 (Ehrnhoefer et al, HMG, 2014. 23(3):717-29).
COS-7 cells were co-transfected with the 4c htt fragment and the human caspase-6 lacking the pro-domain which leads to fast autoactivation of the caspase-6 enzyme and the generation of the 586 aa Htt cleavage fragment. […] Non-transfected cells were included as a negative control and the purified 586 aa Htt fragment was included as a positive control. […] The cell lysates were also assayed for the levels of active caspase 6 enzyme as shown in the lower panel of FIG. 5B.
(In general: Immunoblotting shows a protein as a band on a membrane.)

In data set [3] the target is T3, interaction between 1212AA Htt and caspase-6 (Homo sapiens, UniProt P55212).
T3 construct: DDK-tag (C); expressed in transfected cells; host or cells: COS-7
T3 sequence (P55212 with tags, fused parts or gaps): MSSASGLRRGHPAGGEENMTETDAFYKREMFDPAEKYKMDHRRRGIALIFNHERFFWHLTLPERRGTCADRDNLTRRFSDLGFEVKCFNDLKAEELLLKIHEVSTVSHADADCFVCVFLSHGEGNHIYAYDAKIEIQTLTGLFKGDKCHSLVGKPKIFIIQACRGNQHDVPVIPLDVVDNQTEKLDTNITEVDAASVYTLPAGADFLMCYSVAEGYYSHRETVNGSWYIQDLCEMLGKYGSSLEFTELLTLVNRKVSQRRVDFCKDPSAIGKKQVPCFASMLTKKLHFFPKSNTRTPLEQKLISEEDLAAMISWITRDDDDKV
The data set is described as follows: Co-immunoprecipitation of Htt with caspase-6 antibody from COS-7 lysates. The data set is classed as cell-based. The following applies: 3 uM inhibitor, vs DMSO. The method, then: (§1) COS-7 cells were co-transfected with the 1212 amino acid HTT fragment (SEQ ID NO: 3) and the full length human caspase-6 enzyme (SEQ ID NO:4). The co-transfected cells were exposed to either 10 uM of the PG3d compound, 3 uM of the Q-VD-Oph pan-caspase inhibitor or were treated with DMSO as a control. An aliquot of the cell lysates were subjected to Western blotting to detect HTT fragments with the Htt antibody 2166 (Millipore) and the presence of caspase-6 was detected using the HD91 antibody (Ehrnhoefer et al, HMG, 2014. 23(3):717-29). The remaining cell lysates (500 ug protein) were immunoprecipitated with 5 ug of Caspase-6 antibody for 16 hrs at 4 C. The immunoprecipitated proteins were then applied to acrylamide gels and immunoblotted to detect either the HTT fragments or the presence of the active caspase 6 enzyme using the antibodies described above.
As expected, the DMSO control lysates reveal a variety of Htt fragments within the immunocomplexes, including 513AA fragment generated by caspase-3 cleavage, the full-length 1212AA Htt and the 586AA fragment generated by caspase-6 cleavage. When the cells are treated with the pan-caspase inhibitor Q-VD-OPh, the amount of Htt cleavage fragments interacting with caspase-6 is reduced and it is evident that caspase-6 is primarily interacting with the 1212 AA Htt.

Data set [4] deals with T4, full-length human caspase-6 (Homo sapiens, UniProt P55212).
T4 construct: DDK-tag (C); expressed in transfected cells; host or cells: COS-7
T4 sequence (P55212 with tags, fused parts or gaps): T3 sequence (P55212 with tags, fused parts or gaps)
Nature of the data set: Western blot of Htt fragments in COS-7 cells co-transfected with Htt 1-1212AA and full-length caspase-6. The following applies: 3 uM inhibitor, 24 hr, vs DMSO. The data set is classed as cell-based. The method, then:
as §1
Cos-7 cells were co-transfected with Htt 1-1212AA (SEQ ID NO:3) and full-length human caspase-6 (SEQ ID NO:6), and exposed to either the pan-caspase inhibitor Q-VD-OPh, the PG3d compound or DMSO as a negative control. As shown in the upper panel of FIG. 9A, control cells that received DMSO alone (lanes labelled n.t.) show the presence of the Htt 1212AA protein and the Htt proteolytic cleavage fragments including the 586, 552 and 513 amino acid fragments. […]

Molecules are shown by their SMILES. Some results are limits rather than exact numbers.

With `O=C(C#Cc1ccccc1)NC(=O)Cc1ccccc1` [PG-3h, 3-Phenyl-N-(phenylacetyl)prop-2-ynamide], the half-maximal inhibitory concentration (IC50) came out at 4.8 µM in data set [1] and 8.1 µM at recombinant caspase-6.
With `CC(C)[C@H](NC(=O)c1ccc2ccccc2n1)C(=O)N[C@@H](CC(=O)O)C(=O)COc1c(F)cccc1F` [Q-VD-Oph, reference compound], in data set [2], the “cleavage of the Htt protein to the 586 amino acid fragment” value is recorded as “reduced cleavage” and the “level of active caspase-6 enzyme” value was “reduced level of active caspase-6 enzyme”. Also, the “amount of Htt cleavage fragments interacting with caspase-6” value in data set [3] is on record as “reduced”. In addition, the “amount of Htt cleavage fragments” value in data set [4] is given as “reduction”.
Take `Cc1c(O)nc(C#Cc2ccccc2)oc1=O` [PG-3a, 4-Hydroxy-5-methyl-2-(phenylethynyl)-6H-1,3-oxazin-6-one]: the melting point was 184 to 186 °C. In data set [1], the IC50 was over 15 µM. Moreover, the IC50 on recombinant caspase-6 was 8.2 µM.
The matching figures for `CCc1c(O)nc(C#Cc2ccccc2)oc1=O` [PG-3b, 5-Ethyl-4-hydroxy-2-(phenylethynyl)-6H-1,3-oxazin-6-one]: 177 to 178 °C, 12.1 µM and 8 µM.
Consider `Cc1c(O)nc(C#Cc2ccccc2Cl)oc1=O` [PG-3f, 2-[(2-Chlorophenyl)ethynyl]-4-hydroxy-5-methyl-6H-1,3-oxazin-6-one], for which the melting point fell in the range of 175 to 178 °C. For the same compound, the 50% inhibitory concentration (IC50) at recombinant caspase-6 amounted to 57.3 µM.
Turning to `CC(C)c1c(O)nc(C#Cc2ccccc2)oc1=O` [PG-3c, 4-Hydroxy-5-isopropyl-2-(phenylethynyl)-6H-1,3-oxazin-6-one], the melting point was 202 to 203 °C. Moreover, the IC50 in data set [1] is over 15 µM. Also, the IC50 on recombinant caspase-6 was 12.2 µM.
For `O=c1oc(C#Cc2ccccc2)nc(O)c1-c1ccccc1` [PG-3e, 4-Hydroxy-5-phenyl-2-(phenylethynyl)-6H-1,3-oxazin-6-one], in that order: 187 to 189 °C, 2.5 µM and 3.9 µM.
In turn, `CCCCc1c(O)nc(C#Cc2ccccc2)oc1=O` [PG-3, 5-Butyl-4-hydroxy-2-(phenylethynyl)-6H-1,3-oxazin-6-one] showed a melting point of 157 to 159 °C. Besides, the half-inhibitory concentration (IC50) at recombinant caspase-6 was 13.8 µM.
Take `O=c1oc(C#Cc2ccc(Cl)cc2)nc(O)c1-c1ccccc1` [PG-3g, 2-[(4-Chlorophenyl)ethynyl]-4-hydroxy-5-phenyl-6H-1,3-oxazin-6-one]: the melting point was 185 to 187 °C (dec.). For the same compound, the IC50 in data set [1] was found to be 3.9 µM. Further, the IC50 on recombinant caspase-6 came to 7.5 µM.

What is called IC50 is the concentration that gives 50% inhibition. Broadly, the melting point is the temperature of the solid-liquid transition.

The record behind these values is patent US20190192524A1, “Modulators of Caspase-6” (The University of British Columbia, priority 2014, published 2019).
